These results are taken from US20040102454A1, “Phenylahistin and the phenylahistin analogs, a new class of anti-tumor compounds” (priority 1998, published 2004).

What is called GI50 is the concentration at which growth is held to half of that of the control. Broadly, the TGI is the concentration at which net growth stops. What is called MIC is the lowest concentration that inhibits growth of the organism.

Data set [1] in a line: Solubility of phenylahistin in solvents. The format is physicochemical.
The subject of the next data set is 38 tumor cell lines. Kind of data set: Human Cancer Cell Line Panel (HCC panel) assay, whole panel. The data set is classed as cell-based. Conditions: (−)-PLH content 24.1%, read-out: GI50 values, range over 38 cell lines. The method, then:
(§1) The antitumor activity of PLH was evaluated by the Human Cancer Cell Line Panel (HCC panel) assay, see Yamori T., Jap. J Cancer Chemother., (1997), 24, 129-35. This HCC panel consists of 38 tumor cell lines including 7 lung cancer, 6 stomach, 6 colon, 5 ovary, 6 central nerve system, 5 breast, 2 kidney and 1 melanoma cell lines. Each tumor cell was seeded in 96-well tissue culture plates and incubated overnight. Various concentrations (5 doses; final 10^−4, 10^−5, 10^−6, 10^−7 and 10^−8 M) of PLH were added, and the cells were incubated for 48 hours. […] All mice were obtained from Japan SLC (Shizuoka, Japan), P388 leukemia cells were obtained from Dainippon Pharmaceuticals Inc. (Osaka, Japan), Lewis Lung Carcinoma from Riken Cell Bank (Tsukuba, Japan), and Colon 26 cells from the National Cancer Center, Japan (Tokyo, Japan).

The subject of another data set is BSY-1. Kind of data set: HCC panel assay, sulforhodamine B. The format is cell-based. Conditions: BSY-1, Breast, (−)-PLH content 24.1%. The method, then:
as §1

The test system of a further data set is DMS273. Kind of data set: HCC panel assay, sulforhodamine B. The note with it: DMS273, Lung, (−)-PLH content 24.1%. The data set is classed as cell-based. On the procedure: as §1
Another data set has as its system LOX-IMVI. Kind of data set: HCC panel assay, sulforhodamine B. The data set is classed as cell-based. Conditions: Melanoma, (−)-PLH content 24.1%. On the procedure: as §1
A further data set concerns MKN45. Kind of data set: HCC panel assay, sulforhodamine B. The format is cell-based. Conditions: MKN45, Stomach, (−)-PLH content 24.1%. On the procedure:
as §1

A further data set has as its system MKN7. Kind of data set: HCC panel assay, sulforhodamine B. The data set is classed as cell-based. The note with it: MKN7, Stomach, (−)-PLH content 24.1%. The method, then: as §1
The test system of the next data set is NCI-H23. Kind of data set: HCC panel assay, sulforhodamine B. The format is cell-based. The note with it: NCI-H23, Lung, (−)-PLH content 24.1%. The method, then: as §1
The next data set has as its system OVCAR-4. Kind of data set: HCC panel assay, sulforhodamine B. The data set is classed as cell-based. Conditions: OVCAR-4, Ovary, (−)-PLH content 24.1%. On the procedure: as §1
Another data set concerns RXF-6311. Kind of data set: HCC panel assay, sulforhodamine B. The format is cell-based. Conditions: RXF-6311, Renal, (−)-PLH content 24.1%. The method, then:
as §1

For the next data set, the system named is SNB-75. Kind of data set: HCC panel assay, sulforhodamine B. The data set is classed as cell-based. The note with it: SNB-75, CNS, (−)-PLH content 24.1%. The method, then: as §1
The subject of a further data set is SNB-78. Kind of data set: HCC panel assay, sulforhodamine B. Conditions: SNB-78, CNS, (−)-PLH content 24.1%. The format is cell-based. On the procedure: as §1
The test system of a further data set is U251. Kind of data set: HCC panel assay, sulforhodamine B. The format is cell-based. Conditions: U251, CNS, (−)-PLH content 24.1%. On the procedure: as §1
The next data set deals with P388 cells. Kind of data set: Cell cycle progression of P388, flow cytometer. The data set is classed as cell-based, murine. The note with it: 1×10^−6 M, 8-hour incubation. On the procedure:
The effect of phenylahistin on the cell cycle progression of P388 cells was also investigated using a flow cytometer, as described in Krishan, A., J. Cell Biol. (1975) 66, 188-193. P388 cells in the log growth phase were seeded into flasks and cultured for 14 hours, and then various concentrations of phenylahistin were added to each flask. After an 8-hour incubation, the cells were harvested and fixed with 50% MeOH at −20° C. overnight. The cells were washed with 30% MeOH and then with 10 mM PBS, and treated with 50 :g/ml propidium iodide at 4° C. for 2 hours. DNA histograms were obtained using a flow cytometer (Cyto ACE-300:JASCO).

Another data set has as its system C. glabrata. Kind of data set: Antifungal susceptibility testing, broth dilution (NCCLS M38-A). The note with it: Nakaseomyces glabratus; C. glabrata; 80% reduction in turbidity; read-out: MIC. The format is cell-based, Candida glabrata. On the procedure: (§2) Antifungal susceptibility testing was accomplished according to the methods outlined in the National Committee for Clinical Laboratory Standards, M38-A “Reference Method for Broth Dilution Antifungal Susceptibility Testing of Conidium-Forming Filamentous Fungi; Approved Standard.” This includes testing in RPMI-1640 with glutamine and without bicarbonate, an inoculum size of 0.4-5×10^4, and incubation at 30 or 35° C. for 48 hours. […] Drug concentrations were 0.03-16 μg/ml for the investigational compounds, 0.015-8 μg/ml for itraconazole and griseofulvin.
(§3) The minimum lethal concentration (MLC) was determined by plating […] from the MIC concentration and each concentration above the MIC. […] When a MIC was obtained, a minimum fungicidal concentration (MFC) was determined to assess the fungistatic/fungicidal nature of the compound. […] The compound is scored as fungistatic if the cells are able to resume growth and fungicidal if no regrowth is possible because the compound had killed the organisms.
A general note: In broth dilution the organism is exposed to a series of concentrations in liquid medium.

The subject of the next data set is A. fumigatus isolate #1. The description is as above. The format is cell-based. The note with it: Aspergillus fumigatus, 80% reduction in turbidity. The method, then:
as §2, §3

The subject of a further data set is A. fumigatus isolate #2. Described as above. The data set is classed as cell-based. The note with it: Aspergillus fumigatus, 80% reduction in turbidity. The method, then:
as §2, §3

Where [2] appears, read: Homo sapiens, read-out: GL50 (the source's name).
[3] abbreviates: Homo sapiens, read-out: LC50 (the source's name).

Turning to `C=CC(C)(C)c1[nH]cnc1/C=C1\NC(=O)[C@H](Cc2ccccc2)NC1=O` (racemic) [PLH, phenylahistin], the solubility result in data set [1] (in ethyl acetate, chloroform, methanol, and pyridine) is “soluble”; in data set [1] (in water, benzene, and toluene), “only slightly soluble”. Besides, the GI50 in the data set on 38 tumor cell lines was in the range of 0.23 to 40 µM. The TGI with BSY-1 was 0.67 µM; in the data set with DMS273 it was above 100 µM; with LOX-IMVI it was above 100 µM; with MKN45 it was above 100 µM; in the data set with MKN7 it was above 100 µM; with NCI-H23 it was 92 µM. In addition, the TGI is above 100 µM with OVCAR-4; above 100 µM in the data set on RXF-6311; above 100 µM in the data set with SNB-75; above 100 µM with SNB-78; 10 µM in the data set on U251. Besides, the IC50 in the data set with BSY-1 (setting [2]) amounted to 0.23 µM; in the data set on DMS273 (Homo sapiens, DMS-273, read-out: GL50 (the source's name)), 0.29 µM; in the data set on LOX-IMVI (setting [2]), 1.3 µM; in the data set with MKN45 (Homo sapiens, MKN-45, read-out: GL50 (the source's name)), 1.5 µM; in the data set on MKN7 (Homo sapiens, MKN-7, read-out: GL50 (the source's name)) it was 0.39 µM; in the data set on NCI-H23 (setting [2]) it was 0.91 µM. In addition, the IC50 stood at 40 µM in the data set on OVCAR-4 (setting [2]); 1.9 µM in the data set on RXF-6311 (setting [2]); 0.37 µM in the data set on SNB-75 (setting [2]); 1.3 µM in the data set with SNB-78 (setting [2]); 0.44 µM in the data set on U251 (Homo sapiens, U-251, read-out: GL50 (the source's name)). For the same compound, the CC50 was above 100 µM in the data set with BSY-1 (setting [3]); above 100 µM with DMS273 (Homo sapiens, DMS-273, read-out: LC50 (the source's name)); above 100 µM in the data set with LOX-IMVI (setting [3]); above 100 µM in the data set with MKN45 (Homo sapiens, MKN-45, read-out: LC50 (the source's name)); above 100 µM with MKN7 (Homo sapiens, MKN-7, read-out: LC50 (the source's name)); above 100 µM in the data set with NCI-H23 (setting [3]). The CC50 was above 100 µM in the data set on OVCAR-4 (setting [3]); above 100 µM in the data set on RXF-6311 (setting [3]); above 100 µM in the data set on SNB-75 (setting [3]); above 100 µM with SNB-78 (setting [3]); above 100 µM with U251 (Homo sapiens, U-251, read-out: LC50 (the source's name)).
Turning to `C=CC(C)(C)c1[nH]cnc1/C=C1\NC(=O)[C@H](Cc2ccccc2)NC1=O` [(−)-phenylahistin], the results for the “cell cycle inhibitory activity (G2/M)” value in the data set with P388 cells and in the data set on P388 cells (listed as (−)-PLH) were “exhibited cell cycle inhibitory activity” and “completely inhibits the cell cycle progression”, respectively. Further, the MIC is above 70 mg/L in the data set on C. glabrata, above 16 mg/L against A. fumigatus isolate #1 and above 16 mg/L in the data set with A. fumigatus isolate #2.
